# Data from paper PMC10011747, “Targeting androgen receptor and the variants by an orally bioavailable Proteolysis Targeting Chimeras compound in castration resistant prostate cancer” (eBioMedicine, 2023).
# Tests used:
# [1] = system: AR-negative PC3 cells; assay: Cell viability, PC3; type: cell-based, human; settings: 7 days treatment
# Procedure: (§1) Cells were seeded in triplicate in 96-well plates 1 day prior to drug treatment for all assays. For viability test and IC50 assessment, the alamarBlue™ Cell Viability Reagent (Thermo Fisher Scientific) was added to cells 7 days after PROTAC treatment, followed by fluorescence detection as the manufacturer instructed. The IC50 was calculated by dose-inhibition regression. For proliferation monitoring, 2, 4, 6 and 8 days after PROTAC treatment (day 0), viable cells were detected by MTT Cell Proliferation Kit I (Sigma–Aldrich) according to the manufacturer's instructions. Cellular caspase activity was measured by Caspase-Glo 3/7 Assay System (Promega) 1 or 2 days after the drug treatment.
# Figure S15. ITRI-90 is ineffective for AR-n egative PC3 cells. (a) CWR22Rv1 and PC3 cell viability was detected upon 7 days treatment of ITRI-90. (b,c) Antitumor activity of ITRI -90 towards PC3 tumor xenografts.
# PC3 tumor xenografts implanted in SCID mice were treated with ITRI-90 orally using 100 mg/kg twice daily dosing. The numbers of tumor in each group is as indicated. (b) Scatter plots of the tumor size. (c) Western blotting of AR and AR -V proteins in the tumors collected at the final time points. CWR22Rv1 xenograft samples from Figure 7i were used as positive control for AR and AR-V expression.
# (1 picture or pasted object on this page, not shown here)
# [2] = system: AR-negative PC3 prostate cancer model; assay: PC3 xenograft negative control study; type: in vivo, mouse; settings: PO 100 mg/kg twice daily
# Procedure: Immunodifficient male C.B-17 SCID mice (NOD.CB17-Prkdc^scid/NcrCrlBltw) at 4–6 weeks of age were purchased from BioLASCO Taiwan Co., Ilan, Taiwan. All mice were housed in conventional cages in the AAALAC Full Accreditation (2011) in Industrial Technology Research Institute and were allowed to acclimatize and recover from shipping-related stress for one week prior to the study. The health of the mice was monitored by daily observations. Animals were kept in rooms at temperature of 22–26 °C with 40–70% humidity, positive pressure, 60% air recirculation, ventilation rate 15–20 changes per hour, and a controlled light–dark cycle (12–12 h). […] Tumors were measured with calipers, and tumor size was calculated as follows: tumor volume (V) = (L × S^2)/2 (L, longest diameter, mm; S, shortest diameter, mm). […] Tumor size and body weight of the animals were monitored and recorded two to three times per week. […] The drug antitumor efficacy was presented as percentages of TGI of each tested animal, calculated as follows: [1 − (final tumor volume − initial tumor volume of the treated group)/average of (final tumor volume − initial tumor volume of the vehicle group)] × 100. Body weight of each mouse was also compared to that on the first day of treatment (day 0) and expressed as a percentage of day 0 value. […]
# Figure S15. […] (a) CWR22Rv1 and PC3 cell viability was detected upon 7 days treatment of ITRI-90. […]
# [3] = system: caspase 3/7; assay: Caspase-Glo 3/7 activity; type: cell-based, human; settings: 5 μM LNCaP, 1 μM CWR22Rv1, two days after treatment
# Procedure: as §1
compound,measurement,setting,value
"Cc1ncsc1-c1ccc(CNC(=O)[C@@H]2C[C@H](O)CN2C(=O)[C@@H](NC(=O)COCCCCOc2ccc(C3CCN(C4=Nn5c(nnc5C(F)(F)F)CC4)CC3)cc2)C(C)(C)C)cc1 [ITRI-90, (2S,4S)-1-((S)-3,3-dimethyl-2-(2-(4-(4-(1-(3-(trifluoromethyl)-7,8-dihydro-[1,2,4]triazolo[4,3-b]pyridazin-6-yl)piperidin-4-yl)phenoxy)butoxy)acetamido)butanoyl)-4-hydroxy-N-(4-(4-methylthiazol-5-yl)benzyl)pyrrolidine-2-carboxamide]",PC3 cell viability,[1],ineffective
same,antitumor activity towards PC3 tumor xenografts,[2],ineffectiveness
"O=C1CCC(N2Cc3c(NC(=O)COCCCCOc4ccc(C5CCN(C6=Nn7c(nnc7C(F)(F)F)CC6)CC5)cc4)cccc3C2=O)C(=O)N1 (stereo not drawn) [ITRI-126, N-(2-(2,6-dioxopiperidin-3-yl)-1-oxoisoindolin-4-yl)-2-(4-(4-(1-(3-(trifluoromethyl)-7,8-dihydro-[1,2,4]triazolo[4,3-b]pyridazin-6-yl)piperidin-4-yl)phenoxy)butoxy)acetamide]",caspase 3/7 activity at lower concentrations,[3],induced strong caspase activity two days after drug treatment
